US8426406B2, “Glucocorticoid receptor agonist comprising 2,2,4-trimethyl-6-phenyl-1,2-dihydroquinoline derivatives having substituted oxy group” (Santen Pharmaceutical Co., Ltd., priority 2008, dated 2013)

Tested on: IL-6 production induced by lipopolysaccharide (LPS) in human corneal epithelial cells
Assay: Evaluation test for GR agonist activity: inhibition of LPS-induced IL-6 production in human corneal epithelial cells (HCE-T)
Type: cell-based
Conditions: Corneal epithelial cell, 10 μL of 100 μM test compound solution per well, 4 hours incubation, efficacy relative to DEX
Protocol: In order to evaluate a GR agonist activity of the present compound, the inhibitory effects on the IL-6 production induced by lipopolysaccharide (LPS) in human corneal epithelial cells. IL-6 levels in the conditioned medium were measured using the HTRF human IL-6 Kit (boehringer-Ingelheim, Cat No. 62IL6PEB), and the procedure was carried out according to the protocol attached to the kit. Hereinafter, the specific method will be described.
LPS solution: After LPS was dissolved in phosphate buffer solution (hereinafter referred to as PBS(−)), the resulting solution was diluted with 10% FBS-DMEM/F12 medium, whereby a 1 μg/mL LPS solution was prepared.
After a test compound was dissolved in dimethylsulfoxide (hereinafter referred to as DMSO), the resulting solution was diluted with 10% FBS-DMEM/F12 medium, whereby a 100 μM test compound solution was prepared. A 100 μM DEX solution was prepared by the same method, and the inhibitory ratio of IL-6 production of DEX was evaluated to use for calculating efficacy (% DEX).
Used cell: SV40-immortalized human corneal epithelial cells (HCE-T) (RIKEN)
1) HCE-T cells were harvested, and seeded at 2.0×10^4 cells/0.1 mL/well in a 96-well plate.
2) After incubation overnight, the medium was removed and a 80 μL of new 10% FBS-DMEM/Ham's F12 medium was added into each well.
3) A 10 μL of test compounds solution was added into each well.
4) A 10 μL of LPS solution was added into each well.
5) As a negative control, a 10 μL of 10% FBS-DMEM/Ham's F12 medium was added into each well instead of a test compound solution and a LPS solution.
6) As a positive control, a 10 μL of 10% FBS-DMEM/Ham's F12 medium containing 1% DMSO was added into each well instead of a test compound solution.
7) After 4 hours incubation, supernatants were collected and IL-6 levels in the supernatants were quantitated using the HTRF human IL-6 Kit.
8) The inhibition ratio of IL-6 production (%) was calculated according to the following equation.
The inhibition ratio of IL-6 production (%) was calculated according to the following equation. The inhibition ratio of IL-6 production(%)=100×[1−(IL-6 level in each group−mean value of IL-6 level in negative control)/(mean value of IL-6 level in positive control−mean value of IL-6 level in negative control)](%)
Furthermore, the inhibition ratio of IL-6 production (efficacy (% DEX)) was also calculated according to the following equation. Efficacy(% DEX)=100×{(mean value of IL-6 inhibition in compound-treated group)/(mean value of IL-6 inhibition in DEX-treated group)}(%) (Result and Discussion)

SMILES	Emax
COc1cc(OC(=O)c2cscn2)ccc1-c1ccc2c(c1COC(=O)c1ccc(C)s1)C(C)=CC(C)(C)N2 [Compound 1-155, 6-[2-Methoxy-4-(thiazol-4-ylcarbonyloxy)phenyl]-5-(5-methylthiophen-2-ylcarbonyloxymethyl)-2,2,4-trimethyl-1,2-dihydroquinoline]	83%
COc1cc(OC(=O)c2ccccc2OC(C)=O)ccc1-c1ccc2c(c1COc1cc(F)ccc1C)C(C)=CC(C)(C)N2 [Compound 1-36, 6-[4-(2-Acetoxybenzoyloxy)-2-methoxyphenyl]-5-(5-fluoro-2-methylphenoxymethyl)-2,2,4-trimethyl-1,2-dihydroquinoline]	75%
COc1cc(OC(=O)c2cccnc2C)ccc1-c1ccc2c(c1CNc1cc(F)ccc1C)C(C)=CC(C)(C)N2 [Compound 1-122, 5-(5-Fluoro-2-methylphenylaminomethyl)-6-[2-methoxy-4-(2-methylpyridin-3-ylcarbonyloxy)phenyl]-2,2,4-trimethyl-1,2-dihydroquinoline]	89%
COc1ccccc1NCc1c(-c2ccc(OC(=O)c3ccc(F)cc3)cc2OC)ccc2c1C(C)=CC(C)(C)N2 [Compound 1-110, 6-[4-(4-Fluorobenzoyloxy)-2-methoxyphenyl]-5-(2-methoxyphenylaminomethyl)-2,2,4-trimethyl-1,2-dihydroquinoline]	83%
COc1cc(OC(=O)c2ccccc2OC(C)=O)ccc1-c1ccc2c(c1COC(=O)c1ccc(C)s1)C(C)=CC(C)(C)N2 [Compound 1-165, 6-[4-(2-Acetoxybenzoyloxy)-2-methoxyphenyl]-5-(5-methylthiophen-2-ylcarbonyloxymethyl)-2,2,4-trimethyl-1,2-dihydroquinoline]	93%
COc1cc(OC(=O)c2ccsc2)ccc1-c1ccc2c(c1COC(=O)c1ccc(C)s1)C(C)=CC(C)(C)N2 [Compound 1-147, 6-[2-Methoxy-4-(thiophen-3-ylcarbonyloxy)phenyl]-5-(5-methylthiophen-2-ylcarbonyloxymethyl)-2,2,4-trimethyl-1,2-dihydroquinoline]	80%
COc1ccccc1NCc1c(-c2ccc(OC(=O)c3ccccc3Cl)cc2OC)ccc2c1C(C)=CC(C)(C)N2 [Compound 1-99, 6-[4-(2-Chlorobenzoyloxy)-2-methoxyphenyl]-5-(2-methoxyphenylaminomethyl)-2,2,4-trimethyl-1,2-dihydroquinoline]	89%
CCS(=O)(=O)Oc1ccc(-c2ccc3c(c2COC(=O)c2ccc(C)s2)C(C)=CC(C)(C)N3)c(OC)c1 [Compound 4-32, 6-(4-Ethylsulfonyloxy-2-methoxyphenyl)-5-(5-methylthiophen-2-ylcarbonyloxymethyl)-2,2,4-trimethyl-1,2-dihydroquinoline]	77%
COc1cc(OC(=O)c2ccoc2)ccc1-c1ccc2c(c1COC(=O)c1ccc(C)s1)C(C)=CC(C)(C)N2 [Compound 1-148, 6-[4-(Furan-3-ylcarbonyloxy)-2-methoxyphenyl]-5-(5-methylthiophen-2-ylcarbonyloxymethyl)-2,2,4-trimethyl-1,2-dihydroquinoline]	86%
CCCS(=O)(=O)Oc1ccc(-c2ccc3c(c2COc2cc(F)ccc2C)C(C)=CC(C)(C)N3)c(OC)c1 [Compound 4-3, 5-(5-Fluoro-2-methylphenoxymethyl)-6-(2-methoxy-4-propylsulfonyloxyphenyl)-2,2,4-trimethyl-1,2-dihydroquinoline]	81%
COc1cc(OC(=O)c2cscn2)ccc1-c1ccc2c(c1COc1cc(F)ccc1C)C(C)=CC(C)(C)N2 [Compound 1-40, 5-(5-Fluoro-2-methylphenoxymethyl)-6-[2-methoxy-4-(thiazol-4-ylcarbonyloxy)phenyl]-2,2,4-trimethyl-1,2-dihydroquinoline]	75%
COc1cc(OC(=O)C(C)(C)C)ccc1-c1ccc2c(c1COc1cc(F)ccc1C)C(C)=CC(C)(C)N2 [Compound 1-58, 6-(4-t-Butylcarbonyloxy-2-methoxyphenyl)-5-(5-fluoro-2-methylphenoxymethyl)-2,2,4-trimethyl-1,2-dihydroquinoline]	76%
COc1ccccc1NCc1c(-c2ccc(OC(=O)c3cccnc3OC)cc2OC)ccc2c1C(C)=CC(C)(C)N2 [Compound 1-117, 6-[2-Methoxy-4-(2-methoxypyridin-3-ylcarbonyloxy)phenyl]-5-(2-methoxyphenylaminomethyl)-2,2,4-trimethyl-1,2-dihydroquinoline]	95%
COc1cc(OS(=O)(=O)C2CC2)ccc1-c1ccc2c(c1COC(=O)c1ccc(C)s1)C(C)=CC(C)(C)N2 [Compound 4-34, 6-(4-Cyclopropylsulfonyloxy-2-methoxyphenyl)-5-(5-methylthiophen-2-ylcarbonyloxymethyl)-2,2,4-trimethyl-1,2-dihydroquinoline]	86%
CCCS(=O)(=O)Oc1ccc(-c2ccc3c(c2CNc2cc(F)ccc2C)C(C)=CC(C)(C)N3)c(OC)c1 [Compound 4-21, 5-(5-Fluoro-2-methylphenylaminomethyl)-6-(2-methoxy-4-propylsulfonyloxyphenyl)-2,2,4-trimethyl-1,2-dihydroquinoline]	82%
COc1ccccc1NCc1c(-c2ccc(OC(=O)c3ccccc3F)cc2OC)ccc2c1C(C)=CC(C)(C)N2 [Compound 1-101, 6-[4-(2-Fluorobenzoyloxy)-2-methoxyphenyl]-5-(2-methoxyphenylaminomethyl)-2,2,4-trimethyl-1,2-dihydroquinoline]	81%
COc1cc(OC(=O)c2ccccc2[N+](=O)[O-])ccc1-c1ccc2c(c1COC(=O)c1ccc(C)s1)C(C)=CC(C)(C)N2 [Compound 1-170, 6-[2-Methoxy-4-(2-nitrobenzoyloxy)phenyl]-5-(5-methylthiophen-2-ylcarbonyloxymethyl)-2,2,4-trimethyl-1,2-dihydroquinoline]	77%
COc1cc(OC(=O)N(C)C)ccc1-c1ccc2c(c1COc1cc([N+](=O)[O-])ccc1C)C(C)=CC(C)(C)N2 [Compound 6-33, 6-(4-Dimethylaminocarbonyloxy-2-methoxyphenyl)-5-(2-methyl-5-nitrophenoxymethyl)-2,2,4-trimethyl-1,2-dihydroquinoline]	78%
COc1cc(OC(=O)c2ccc(C)o2)ccc1-c1ccc2c(c1COc1cc(F)ccc1C)C(C)=CC(C)(C)N2 [Compound 1-48, 5-(5-Fluoro-2-methylphenoxymethyl)-6-[2-methoxy-4-(5-methylfuran-2-ylcarbonyloxy)phenyl]-2,2,4-trimethyl-1,2-dihydroquinoline]	73%
COc1cc(OC(=O)c2ccccc2F)ccc1-c1ccc2c(c1COc1cc(F)ccc1C)C(C)=CC(C)(C)N2 [Compound 1-45, 6-[4-(2-Fluorobenzoyloxy)-2-methoxyphenyl]-5-(5-fluoro-2-methylphenoxymethyl)-2,2,4-trimethyl-1,2-dihydroquinoline]	77%
COC(=O)c1cccc(C(=O)Oc2ccc(-c3ccc4c(c3CNc3ccccc3OC)C(C)=CC(C)(C)N4)c(OC)c2)c1 [Compound 1-107, 6-[2-Methoxy-4-(3-methoxycarbonylbenzoyloxy)phenyl]-5-(2-methoxyphenylaminomethyl)-2,2,4-trimethyl-l,2-dihydroquinoline]	85%
COc1cc(OC(=O)c2occc2C)ccc1-c1ccc2c(c1COc1cc(F)ccc1C)C(C)=CC(C)(C)N2 [Compound 1-57, 5-(5-Fluoro-2-methylphenoxymethyl)-6-[2-methoxy-4-(3-methylfuran-2-ylcarbonyloxy)phenyl]-2,2,4-trimethyl-1,2-dihydroquinoline]	86%
